Results: US20220030913A1, “SUPPLEMENT FOR LIVESTOCK” (Hoxie Feedyard, LLC, priority 2020, published 2022)

Legend:
Eimeria spp. = experiment: 60 Day feeding study, qualitative fecal flotation for Eimeria; type: in vivo; details: fecal samples at 50 d of feed, samples positive for at least 1+ Eimeria
Description: At 60 days of feed, 2-200 head pens were systematically allocated to 4 pens of 100 head. Two pens of 200 head were sorted at the chute into 4-100 head pens at time of terminal implant. Each 200 head pen contributed 50 head to each of the 4 pens that would be eventually allocated to treatment. This was accomplished by systematic allocation of 5 head at a time to each of the trial pens. If 200 head counts were not exactly 100 head/pen, the final allocations were that the number of animals per treatment group were similar. […]
Freshly voided fecal samples (n=10 per pen) were collected at 50 d of feed for fecal flotation to determine the presence of Eimeria spss. […] Qualitative fecal flotation measurements were measured on a scale of 1+ to 5+ with 1+ having <10 oocysts per slide, 3+ samples having 50-100 oocysts per slide, and 5+ having >500 oocysts/slide. This technique is considered semi-quantitative, with 3+ samples equivalent to approximately 50 oocysts/gram. […]
Continuous variables were analyzed using PROC Glimmix (SAS 9.4, SAS Inst. Inc., Cary, N.C.). […] Statistical significance was determined at P<0.05 with tendencies at 0.06>P<0.10. […]

liver abscesses = experiment: 60 Day feeding study, liver abscess scores at slaughter; type: in vivo, cattle (crossbred steers); details: 60 day study
Description: (§1) Feeding trials were completed with a randomized block design utilizing 4 treatments and 13 replicates per treatment. The first 20 pens (block 1, 5 replicates per treatment group) were placed first, the second 20 pens (block 2, 5 replicates per treatment group) were placed […], and the last 12 pens (block 3, 3 replicates per treatment group) were placed last. All cattle were housed within one area of the feedyard.
(§2) Crossbred steers (n=4,849) with an average weight of 590 kg+/−19.7 kg of various origins from the High Plains and Midwest were selected from within a northwest Kansas commercial feedyard. All cattle underwent the same receiving protocol and were placed in 200 head pens. All cattle were acclimated to feedlot rations and had been on feed a minimum of 60 days prior to trial enrollment. Starting rations during the initial 60 days included 75 mg/head/day tylosin (Tylan, Elanco Animal Health, Greenfield, Ind.) with 15 g/ton monensin (Rumensin, Elanco Animal Health, Greenfield, Ind.).
(§3) At 60 days of feed, 2-200 head pens were systematically allocated to 4 pens of 100 head. Two pens of 200 head were sorted at the chute into 4-100 head pens at time of terminal implant. Each 200 head pen contributed 50 head to each of the 4 pens that would be eventually allocated to treatment. This was accomplished by systematic allocation of 5 head at a time to each of the trial pens. If 200 head counts were not exactly 100 head/pen, the final allocations were that the number of animals per treatment group were similar. Once the 4-100 head pens (1 replicate) were sorted, the pens of cattle were weighed by pen, a 4% pencil shrink was applied, and pens were randomly assigned to 1 of 4 treatments: (1) Positive control (MT) 75 mg/head/day tylosin (Tylan,® Elanco Animal Health, Greenfield, Ind.) and 185 mg/head/day monensin (Rumensin,® Elanco Animal Health, Greenfield, Ind.); (2) Negative control (NO MT) fed without Rumensin® or Tylan®; (3) Decoquinate (DECO) fed 275 to 325 mg/head/day (Deccox,® Zoetis, Parsippany, N.J.); or (4) 3 g/head/day Yucca schidigera (YS) (Micro-Aid,® DPI Global, Porterville, Calif.). All cattle received an identification tag specific to the trial. Caretakers and processing staff were blinded to treatment.
(§4) At 60±4 days of feed, all pens of cattle were shipped to the same abattoir. Hot carcass weight was collected from the plant via scale on carcass rail. Liver abscess scores were assessed by USDA trained professionals and data were collected by third party trained professionals using the liver scoring system previously described by Brown et al. (1975): 0=no abscesses, A−=2-4 abscesses under 1 inch in diameter, A=1-2 abscesses greater than 1 inch in diameter and A+=abscesses greater than 2 inches in diameter, ruptured abscess, or adhesions to body wall. Yield grade and quality grade data were collected from the abattoir by a third party.
(§5) Continuous variables were analyzed using PROC Glimmix (SAS 9.4, SAS Inst. Inc., Cary, N.C.). Models contained treatment as a fixed effect, block as a random effect, and pen as the experimental unit. Least squares means were compared using the PDIFF function of SAS and the Tukey-Kramer adjustment for multiple comparisons. Statistical significance was determined at P<0.05 with tendencies at 0.06>P<0.10. Liver abscess scores, yield grade, and incidence of Eimeria spss. were converted to pen level frequency percentages prior to analysis.

[1] = 60 Day feeding study, carcass characteristics; type: in vivo, cattle (crossbred steers); details: 60 day study
Description: as §1, §2, §3, §4, §5

[2] = 60 Day feeding study, cattle performance; type: in vivo, cattle (crossbred steers)
Description: as §1, §2, §3
All treatment groups received the same base ration (Table 1) that was balanced to provide 14% crude protein DM, […] NEg (Table 1). Rations were prepared using a stationary batcher box (Feeding Systems, Inc., Columbus, Nebr.) and loaded onto mixer/delivery trucks with box-mounted scale (Rotomix Manufacturing, Dodge City, Kans.). Treatment rations were delivered twice daily (0800 and 1300) on separate trucks to prevent cross contamination of treatment rations.
Data on cattle performance were derived from feedlot closeout reports after all pens of cattle were shipped to an abattoir. Daily dry matter intakes were recorded via bunk management personnel and entered into the computerized bunk management system. The average dry matter intake per pen over the 60-day period was retrieved from closeout data. Final body weight was calculated as (carcass weight/0.64). Average daily gain (ADG) was calculated on a pen basis using the equation ((Final body weight−Initial body weight)/days on feed). Feed conversion was calculated by dividing the […], then carcass adjusted G:F was calculated as the reciprocal of feed conversion.
as §5, with “analysis. […]” for “analysis.”

For CCCCCCCCCCOc1cc2c(O)c(C(=O)OCC)cnc2cc1OCC [DECO, decoquinate], which Eimeria spp. incidence (Eimeria spp.) is on record?
Its Eimeria spp. incidence is 5.0%.

And the Total liver abscess (liver abscesses)?
The Total liver abscess was 31.4^a, b %.

And the “incidence of liver abscesses compared with other groups” value (liver abscesses; pairwise comparisons of least squares means)?
Its value is “higher than cattle in the MT group, but lower than cattle in the NO MT group”.

And the A liver abscesses (liver abscesses; A = 1-2 abscesses greater than 1 inch)?
Its A liver abscesses is 4.1%.

And the “A+ liver abscesses” value (liver abscesses; A+ = abscesses greater than 2 inches, ruptured abscess or adhesions)?
The value was 19.68^a, b %.

What about the “A− liver abscesses” value (liver abscesses; A− = 2-4 abscesses under 1 inch) of the same molecule?
The value was 7.6%.

And the Dressing yield [1]?
Its Dressing yield is 63.9^a, b %.

And the “HCW, rank among treatment groups” value [1]?
The value was “intermediate”.

What about the HCW ([1]; hot carcass weight) of the same molecule?
The HCW was 435.8^a, b kg.

And the Choice ([1]; quality grade)?
Its Choice is 83.5%.

What about the Prime ([1]; quality grade) of the same molecule?
The Prime was 2.4%.

What about the Select ([1]; quality grade) of the same molecule?
Its Select is 11.9%.

What about the Standard ([1]; quality grade) of the same molecule?
The Standard was 2.1%.

What about the YG1 ([1]; yield grade 1, pen level frequency) of the same molecule?
Its YG1 is 7.0^a, c %.

And the YG2 ([1]; yield grade 2)?
Its YG2 is 33.8%.

What about the YG3 ([1]; yield grade 3) of the same molecule?
Its YG3 is 40.8%.

And the YG4 ([1]; yield grade 4)?
The YG4 was 17.1%.

What about the YG5 ([1]; yield grade 5) of the same molecule?
Its YG5 is 1.3%.

What about the “final body weight, rank among treatment groups” value ([2]; 60 day study) of the same molecule?
Its value is “intermediate”.

And the “growth performance compared with MT group” value ([2]; 60 day study)?
The value was “more similar to cattle in the MT group”.

And the DMI ([2]; steers, average daily dry matter intake over 60-day period)?
Its DMI is 12.1^a, b kg.

And the “Carcass adjusted G:F” value ([2]; steers, last 60 days on feed)?
The value was 0.120 kg/kg.

What about the “Carcass adjusted ADG” value ([2]; steers, last 60 days on feed, pen basis) of the same molecule?
The value was 1.47^a, b kg.

And the “Carcass adjusted final BW” value ([2]; steers, treatment in ration for last 60 days, final BW = carcass weight/0.64)?
The value was 681.0^a, b kg.
